Reference: patent US3982931A, “N,N-di-sec.butyl-benzamide herbicides” (priority 1967, dated 1976)

Assays:
[1] = tested on: chenopodium album L.; test: herbicidal activity, soil treatment one day after sowing; assay type: in vivo
From the text: (§1) The infesting species and the agrarian species have been indicated in Table 1 by letters, as follows:
(§2) Method of evaluation of the results (of tests):
(§3) 1 slight differences with respect to the control;
(§4) 3 = considerable activity with damages that definitely impair the further development of most of the small plants; an activity degree already useful for practical purposes;
(§5) 4 = maximum of activity with lack of germination or total containment of the small plants in the emerging stage.
(§6) In the case of an intermediate activity between two classes of the scale, both values are recorded with the one which corresponds to the preeminent activity preceding.
(§7) TABLE 2 reports the activity data of other compounds that fall within the class which is the object of this invention.
(§8) TABLE 3 reports data on the herbicidal activity against infesting herbs, while TABLE 4 reports data concerning the activity on useful species of agricultural cultivations. These tables employ the criterion explained previously. […]

[2] = tested on: setaria glauca L.; test: as above; assay type: in vivo
From the text: as §1, §2, §3, §4, §5
(§9) In the case of an intermediate activity between two classes of the scale, both values are recorded with the one which corresponds to the preeminent activity preceding. […]
as §8

[3] = tested on: oryza sativa L. (rice); test: activity on agrarian species, soil treatment one day after sowing; assay type: in vivo; conditions: in vivo
From the text: as §1
P = oryza sativa L. (rice)
as §2
(§10) 0 = no activity and no difference with respect to the control;
as §3, §4, §5, §6, §7
(§11) TABLE 3 reports data on the herbicidal activity against infesting herbs, while TABLE 4 reports data concerning the activity on useful species of agricultural cultivations. These tables employ the criterion explained previously. The product was spread on the soil one day after sowing, in quantities of 1, 3, 6, 8, 10, 12 and 14 kg/ha.

[4] = tested on: echinocloa crus-galli R.S.; test: herbicidal activity, soil treatment one day after sowing; assay type: in vivo
From the text: as §1
D = echinocloa crus-galli R.S.
as §2, §3, §4, §5, §6, §7, §8

[5] = tested on: amaranthus retroflexus L.; test: as above; assay type: in vivo
From the text: as §1
A = amaranthus retroflexus L.
as §2, §3, §4, §5, §6, §7, §8

[6] = tested on: triticum vulgare L. (wheat); test: activity on agrarian species, soil treatment one day after sowing; assay type: in vivo; conditions: in vivo
From the text: as §1
N = triticum vulgare L. (wheat)
as §2, §10, §3, §4, §5, §6, §7, §11

[7] = tested on: zea mais L. (corn); test: as above; assay type: in vivo; conditions: in vivo
From the text: as §1, §2, §10, §3, §4, §5, §6, §7, §11

[8] = tested on: vicia sativa L.; test: herbicidal activity, soil treatment one day after sowing; assay type: in vivo
From the text: as §1, §2, §3, §4, §5, §6, §7

[9] = tested on: artemisia vulgaris L.; test: as above; assay type: in vivo
From the text: as §1
B = artemisia vulgaris L.
as §2, §3, §4, §5, §6, §7, §8

[10] = tested on: avena sativa (oats); test: activity on agrarian species, soil treatment one day after sowing; assay type: in vivo, Avena sativa L.; conditions: in vivo
From the text: as §1, §2, §10, §3, §4, §5, §6, §7, §11

[11] = tested on: phaseolus vulgaris (bean); test: as above; assay type: in vivo, Phaseolus vulgaris L.; conditions: in vivo
From the text: as §1
I = phaseolus vulgaris (bean)
as §2, §10, §3, §4, §5, §6, §7, §11

[12] = tested on: pisum sativum L. (pea); test: as above; assay type: in vivo; conditions: in vivo
From the text: as §1
L = pisum sativum L. (pea)
as §2, §10, §3, §4, §5, §6, §7, §8

[13] = tested on: beta vulgaris L. (sugar-beet); test: as above; assay type: in vivo; conditions: in vivo
From the text: as §1
H = beta vulgaris L. (sugar-beet)
as §2, §10, §3, §4, §5, §6, §7, §11

[14] = tested on: solanum Lycopersicum L.; test: as above; assay type: in vivo; conditions: in vivo
From the text: as §1
M = solanum Lycopersicum L.
as §2, §10, §3, §4, §5, §9

Row | activity on P, 0-4 scale [3] | activity on N, 0-4 scale [6] | activity on O, 0-4 scale [7] | activity on G, 0-4 scale [10] | activity on I, 0-4 scale [11] | activity on L, 0-4 scale [12] | Structure (SMILES) | activity on C, 0-4 scale ([1]; 6 kg/ha) | activity on E, 0-4 scale ([2]; 6 kg/ha) | activity on D, 0-4 scale ([4]; 6 kg/ha) | activity on A, 0-4 scale ([5]; 6 kg/ha) | activity on F, 0-4 scale ([8]; 6 kg/ha) | activity on B, 0-4 scale ([9]; 6 kg/ha) | activity on C, 0-4 scale ([1]; 2 kg/ha) | activity on C, 0-4 scale ([1]; 4 kg/ha) | activity on E, 0-4 scale ([2]; 2 kg/ha) | activity on E, 0-4 scale ([2]; 4 kg/ha) | activity on D, 0-4 scale ([4]; 2 kg/ha) | activity on D, 0-4 scale ([4]; 4 kg/ha) | activity on A, 0-4 scale ([5]; 2 kg/ha) | activity on A, 0-4 scale ([5]; 4 kg/ha) | other results
1 | 2 | 2-3 | 0-1 | 1 | 1-0 | 2 | CCN(CC)C(=O)c1cccc(Cl)c1 [PA321, 3,chloro-N,N-diethyl-benzamide, reference compound] | 1-2 | 1 | 1 | 1-2 | 1 | 2 | – | – | – | – | – | – | – | – | –
2 | 0 | 0 | 0 | 0 | – | 0 | CCC(C)N(C(=O)c1cccc(Br)c1)C(C)CC (stereo not drawn) [PA337/3/Br, 3-bromo-N,N-di-sec.butyl-benzamide] | 4 | 4 | 4 | – | – | 3 | 1 | 3 | 2-3 | 4 | 2 | 4 | 1 | 2-3 | activity on F, 0-4 scale ([8]; 2 kg/ha): 0-1; activity on H, 0-4 scale [13]: 1; activity on B, 0-4 scale ([9]; 4 kg/ha): 1
3 | 0 | 0 | 0 | 0 | 0 | 0 | CCC(C)N(C(=O)c1cc(Cl)c(Cl)cc1Cl)C(C)CC (stereo not drawn) [PA338, 2,4,5-trichloro-N,N-di-sec.butyl-benzamide] | 2 | 3-4 | 3-4 | 2 | 0-1 | 1-2 | – | – | 2-3 | 3 | 2-3 | 3 | – | – | –
4 | 0 | 0 | 0 | 0 | 0 | 0 | CCC(C)N(C(=O)c1cc(Cl)ccc1Cl)C(C)CC (stereo not drawn) [PA412, 2,5-dichloro-N,N-di-sec.butyl-benzamide] | 2-3 | 4 | 4 | 3 | 0 | 2 | – | – | 3 | – | 3 | – | – | – | activity on C, 0-4 scale ([1]; 3 kg/ha): 1-2; activity on E, 0-4 scale ([2]; 1 kg/ha): 3; activity on E, 0-4 scale ([2]; 3 kg/ha): 4; activity on D, 0-4 scale ([4]; 1 kg/ha): 1-2; activity on D, 0-4 scale ([4]; 3 kg/ha): 3-4; activity on A, 0-4 scale ([5]; 3 kg/ha): 2; activity on F, 0-4 scale ([8]; 3 kg/ha): 0; activity on M, 0-4 scale [14]: 1; activity on B, 0-4 scale ([9]; 3 kg/ha): 1
5 | 0 | 0 | 0 | 0 | 0 | 0 | CCC(C)N(C(=O)c1ccc(C)c(Cl)c1)C(C)CC (stereo not drawn) [PA445, 3-chloro,4-methyl-N,N-di-sec.butyl-benzamide] | 4 | 4 | 4 | 2 | 0-1 | 3-4 | 1 | 2-3 | 3-4 | – | 3 | 3-4 | 0-1 | 1 | activity on F, 0-4 scale ([8]; 2 kg/ha): 0; activity on F, 0-4 scale ([8]; 4 kg/ha): 0; activity on M, 0-4 scale [14]: 0; activity on B, 0-4 scale ([9]; 2 kg/ha): 1; activity on B, 0-4 scale ([9]; 4 kg/ha): 2
6 | 0 | 0 | 0 | 0 | 0 | 0 | CCC(C)N(C(=O)c1ccc(Br)c(C)c1)C(C)CC (stereo not drawn) [PA481, 3-methyl,4-bromo-N,N-di-sec.butyl-benzamide] | 2-3 | 3-4 | – | – | 0-1 | 3 | – | – | – | – | – | – | – | – | –
7 | 0 | 0 | – | 0 | 0 | 0 | CCC(C)N(C(=O)c1ccc(Cl)c(Cl)c1Cl)C(C)CC (stereo not drawn) [PA488, 2,3,4-trichloro-N,N-di-sec.butyl-benzamide] | 3 | 4 | 4 | 3-4 | 0 | – | 1-2 | 3 | – | 4 | 3-4 | 4 | 0 | 1 | activity on D, 0-4 scale ([4]; 1 kg/ha): 2; activity on F, 0-4 scale ([8]; 2 kg/ha): 0; activity on F, 0-4 scale ([8]; 4 kg/ha): 0; activity on B, 0-4 scale ([9]; 2 kg/ha): 0; activity on B, 0-4 scale ([9]; 4 kg/ha): 0-1
8 | 0 | 0 | 0 | 0 | 0 | 0 | CCC(C)N(C(=O)c1cccc(I)c1)C(C)CC (stereo not drawn) [PA491, 3-iodo-N,N-di-sec.butyl-benzamide] | 3-4 | 4 | 4 | 3-4 | 1 | 4 | 2 | 2-3 | 3 | – | 3 | – | 1 | 1-2 | activity on F, 0-4 scale ([8]; 2 kg/ha): 0; activity on F, 0-4 scale ([8]; 4 kg/ha): 0; activity on B, 0-4 scale ([9]; 2 kg/ha): 1; activity on B, 0-4 scale ([9]; 4 kg/ha): 3
9 | 0 | 0 | 0 | 0 | 0 | 0 | CCCCN(C(=O)c1ccc(Cl)c(Cl)c1)C(C)CC (stereo not drawn) [PA514, 3,4-dichloro-N-n.butyl,N-sec.butyl-benzamide] | 2 | – | 3 | 1 | 0-1 | 0-1 | – | – | 2 | 3 | 1 | 2-3 | – | – | activity on M, 0-4 scale [14]: 0
